“Also recorded” adds a separate entry of the source. Like-named read-outs stand apart in the source and are kept apart here.
Assays:
Type in all cases: biochemical
[1] = target: T1, FTase (Rattus norvegicus, UniProt Q02293+Q04631); experiment: In vitro FTase assay (K-Ras4B substrate, [3H]FPP)
T1 construct: purchased JENA BIOSCIENCE
Summary of the method: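 FTase (50 nM) with 2 μM MBP-K-Ras4B and 0.4 μM [3H]-FPP in 50 mM Tris-HCl pH 7.5, 10 mM MgCl2, […], 5 mM DTT, 2.5% DMSO; 10 min at 30 °C. [3H]-farnesyl incorporation measured by TCA filter precipitation and scintillation counting.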

[2] = target: T2, RabGGTase (Rattus norvegicus, UniProt Q08602+Q08603); experiment: In vitro RabGGTase (GGTase-II) assay with REP-1
T2 construct: purchased JENA BIOSCIENCE
T2 sequence (Q08602 1-567): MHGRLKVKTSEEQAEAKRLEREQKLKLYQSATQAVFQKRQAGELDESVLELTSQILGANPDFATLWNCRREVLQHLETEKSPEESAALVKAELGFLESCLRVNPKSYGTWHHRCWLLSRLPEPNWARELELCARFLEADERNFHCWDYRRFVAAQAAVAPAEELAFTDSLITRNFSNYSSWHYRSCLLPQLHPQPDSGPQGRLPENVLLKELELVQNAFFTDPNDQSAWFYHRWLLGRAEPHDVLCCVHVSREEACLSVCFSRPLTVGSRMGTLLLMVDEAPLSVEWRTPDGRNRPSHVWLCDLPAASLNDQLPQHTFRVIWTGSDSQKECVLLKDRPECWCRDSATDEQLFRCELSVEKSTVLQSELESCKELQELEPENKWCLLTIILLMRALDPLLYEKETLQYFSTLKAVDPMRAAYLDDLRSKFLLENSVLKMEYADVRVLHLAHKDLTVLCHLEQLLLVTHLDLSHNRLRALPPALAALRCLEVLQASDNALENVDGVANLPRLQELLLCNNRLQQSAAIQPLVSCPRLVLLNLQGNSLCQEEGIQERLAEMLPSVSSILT
T2 sequence (Q08603 1-331): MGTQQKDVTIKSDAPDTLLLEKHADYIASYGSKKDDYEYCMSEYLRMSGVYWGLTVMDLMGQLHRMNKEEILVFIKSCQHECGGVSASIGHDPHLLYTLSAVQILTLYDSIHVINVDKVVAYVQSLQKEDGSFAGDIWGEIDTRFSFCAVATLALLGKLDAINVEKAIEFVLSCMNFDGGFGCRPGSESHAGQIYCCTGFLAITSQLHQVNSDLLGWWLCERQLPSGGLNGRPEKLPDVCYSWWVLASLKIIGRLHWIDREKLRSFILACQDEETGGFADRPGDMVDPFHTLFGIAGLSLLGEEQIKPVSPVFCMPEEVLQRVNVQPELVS
Protocol: The GGTase-I assay was carried out using RhoA as a substrate protein, GGTase-I (JENA Bioscience) and [3H]geranylgeranyl pyrophosphate. Incubation was for 30 min at 37° C. GGTase-II (or RabGGTase) assay was carried out using YPTI as a substrate protein, GGTase-II (Calbiochem, San Diego, Calif.) plus REP1 (Calbiochem) and [3H]geranylgeranyl pyrophosphate. Incubation was for 30 min at 37° C. FIGS. 20D-20F show the three dimensional structure of GGTase I (D), FTsse (E) and GGTase II (F) which can be obtained from X-ray diffraction studies of protein crystals.
For RabGGTase assays, the reaction contained the following components in 20 μl; 0.625 μl of [^3H]-GGPP (0.7 μM), 25 nM RabGGTase, 0.6 μM REP-1, 0.6 μM purified Rab7 or Ypt1 protein, 40 mM HEPES (pH 7.5), 150 mM NaCl, 5 mM DTT, 3 mM MgCl2 and 0.3% CHAPS. Reactions were carried out for 20 min at 37° C. and the products were analyzed as described above for the GGTase-I reaction. Graphing and Michaelis-Menten analysis were performed using Prism version5 (GraphPad, San Diego Calif.).

[3] = target: T3, GGTase-I (Rattus norvegicus, UniProt P53610+Q04631); experiment: In vitro GGTase-I enzyme assay (IC50, kinetics); settings: for IC50: read-out: In vitro (enzyme assay) IC50, GGTase I
T3 construct: purchased JENA BIOSCIENCE
Summary of the method: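 Rat GGTase-I (50 nM) with 0.5 μM [3H]-GGPP and 2 μM MBP-RhoA in Tris-HCl pH 7.5, MgCl2, ZnCl2, DTT, 2.5% DMSO, 10 min at 30 °C; radiolabel incorporation by TCA filter binding and scintillation. Kinetics: 5 min reactions varying GGPP or RhoA at fixed other components.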

[4] = concentration increased to 100,000 nM

Structure (SMILES): Cc1ccccc1S(=O)(=O)N1[C@@H](c2cccc(Cl)c2)C(C(=O)O)=CC[C@H]1c1ccc(Cl)cc1 [P3-E5]
- inhibition of FTase activity (FIG. 16) ([1]; P3-D9, P3-E5: concentration increased to 100 (unit not given)): no inhibition of FTase activity
- inhibition of FTase activity ([1]; concentration increased to 50,000 nM): no significant inhibition
- inhibition of RabGGTase ([2]; even at 50,000 nM): little inhibition
- specificity among GGTase-I, FTase and GGTase-II ([3]; FIGS. 20A-20C, varying concentrations): specifically inhibit GGTase I
- Ki ([3]; Michaelis-Menten analysis): 187 ± 13 nM
- IC50 ([3]; Tables 5, 14): 313 nM
- mode of GGTase-I inhibition with respect to GGPP ([3]; varying GGPP, fixed RhoA): do not compete with GGPP; also recorded: uncompetitive inhibitors
- mode of GGTase-I inhibition with respect to the protein substrate (RhoA) ([3]; varying RhoA, fixed GGPP): compete with a substrate protein; also recorded: competitive inhibitors

Structure (SMILES): Cc1ccccc1S(=O)(=O)N1C(c2ccc(Cl)cc2)C(C(=O)NC(Cc2ccccc2)C(N)=O)=CC1C(C)(C)C (centres unmarked) [P61-A6]
- inhibition of FTase activity [1, 4]: No significant inhibition
- inhibition of RabGGTase activity [2, 4]: No significant inhibition
- IC50 ([3]; Tables 3, 5, 7): 1000 nM
